The nature of series [1]: Hygroscopicity of the solid. Type of series: physicochemical. Particulars: free-flowing solid.

The record followed here is patent US8618305B2, “Sorafenib dimethyl sulphoxide solvate” (Ranbaxy Laboratories Limited, priority 2010, dated 2013).

Like-named read-outs stand apart in the source and are kept apart here.

Regarding `CNC(=O)c1cc(Oc2ccc(NC(=O)Nc3ccc(Cl)c(C(F)(F)F)c3)cc2)ccn1` [Sorafenib dimethyl sulphoxide solvate, dimethyl sulphoxide solvate of 4-(4-{3-[-4-chloro-3-(trifluoromethyl)phenyl]ureido}phenoxy)-N^2-methylpyridine-2-carboxamide], the Hygroscopicity result in series [1] is on record as “non-hygroscopic”. Also, the “Change on heating in a vacuum oven” value is, setting by setting: (about 120° C. and about 135° C. for about 4 hours) “Desolvation of sorafenib dimethyl sulphoxide solvate to sorafenib free base was observed”; (about 4 hours, temperature range of about 45° C. up to 110° C.) “No change was observed”. The “Temperature up to which the solid is stable towards heating” value (under reduced pressure) was no more than 110 °C.
